Tests used:
PRRSV (GSWW-18 strain) = experiment: Anti-PRRSV dose-response (EC50, IFA) in PAM cells; assay type: cell-based, Porcine Reproductive and Respiratory Syndrome Virus; conditions: PAM cells
[1] = Cytotoxicity assay (CC50) in MARC-145 cells; assay type: cell-based; conditions: African green monkey, 48 h of exposure, CCK-8
Source text: Control wells contained DMEM with 0.5% DMSO.
(§1) Supplementary Fig. 3: Cytotoxicity and Antiviral Efficacy of NTZ.
(§2) PRRSV capsid protein positive
(§3) (primary antibody SR30, green) and nuclei (DAPI, blue).

[2] = tested on: PRRSV (VR-2332, GSWW-15, GSWW-18); experiment: Viral titers of VR-2332, GSWW-15 and GSWW-18 in Marc-145 cells; assay type: cell-based, Porcine Reproductive and Respiratory Syndrome Virus; conditions: all three strains
Description: Viral solutions were serially diluted by a factor of 10. Samples containing varying concentrations of virus (100 μL each) were combined with DMEM containing 2% FBS (100 μL) and added to wells; control wells were virus-free. […] Relative quantification qRT-PCR was used to assess PRRSV gene expression, normalized using the 2^−ΔΔCt method in Design & Analysis Software (v2.6.0). Absolute quantification qRT-PCR was used for viral copy number detection, with RNA concentration normalization prior to analysis, as described in our previous publication. Primers used included: PRRSV 5′-[…]′ and 5′-[…]-3′; Marc-145-GAPDH 5′-[…]-3′ and 5′-[…]-3′; PAM-GAPDH 5′-[…]-3′ and 5′-[…]-3′; IFNβ 5′-[…]-3′ and 5′-[…]-3′; Human-GAPDH 5′-[…]-3′ and 5′-[…]-3′.
as §1, §2, §3

Nsp1α = experiment: Differential scanning fluorimetry, purified Nsp1α; assay type: binding, PRRSV GSWW-18 strain; conditions: DSF
Description: (§4) For DSF, 20 μM purified NSP1α and NSP12 protein from the GSWW-18 strain, as well as NMRAL1 protein (Accession: A0A0D9R9W0) was thoroughly mixed with 20 μM SYPRO Orange (S6650, Thermo) in a buffer containing 10 mM HEPES and 200 mM NaCl at pH 7.20. An equal volume of 100 μM NTZ, dissolved in the same buffer, was added and the mixture was filtered through a 0.22 μm filter. For controls, an equivalent volume of DMSO was used. […] DSF experiments were monitored using the QuantStudio™ 5 Real-Time PCR System (Thermo). Data were analyzed using DSFworld[42].
Supplementary Fig. 10: The Affinity of Nsp1α and Nsp12 with TIZ is Lower Than That of NMRAL1.
(a) The KD value of NMRAL1 obtained through the Affinity fit model.
(b) The KD value of Nsp1α determined using the Kinetics fit model.
(c) The KD value of Nsp1α obtained through the Affinity fit model.

NSP12 = experiment: In vitro binding (DSF/CETSA) of NSP12 purified by inclusion bodies; set-up: species or system PRRSV GSWW-18 strain; conditions: NSP12 purified by IBs, different buffer systems
Description: as §4
'FT' is the flow-through after passing through the Ni column. 'Ni-200' and 'Ni-500' represent different purification conditions with varying concentrations. 'L2' is the total cell lysate after changing the expression conditions. 'S2' is the supernatant after cell lysis with changed expression conditions. The portions highlighted in red boxes indicate the target protein. […]
constant (KD) between Nsp1α and TIZ is lower than that of NMRAL1. We observe that […]
attempting different systems (Fig. R5 e-h). Although SPR confirms the interaction […]
possibly be attributed to the abnormal protein conformation of NSP12 purified by IBs. […]
(b) The KD value of Nsp1α determined using the Kinetics fit model. […]
(I) The KD value of Nsp12 determined using the Kinetics fit model. […]

CC(=O)Oc1ccccc1C(=O)Nc1ncc([N+](=O)[O-])s1 [Nitazoxanide]
IFA inhibitory effect on PRRSV (PRRSV (GSWW-18 strain); GSWW-18): dose-dependent inhibitory effect | EC50 (PRRSV (GSWW-18 strain); Porcine reproductive and respiratory syndrome virus, mean ± SEM, n = 2, unit only on axis title, read-out: EC50): 310 ± 147 nM | CC50 at 48 h [1]: ~44 µM | relation of concentration to viral titers [2]: negative correlation | decrease in the Tm value (Nsp1α): 3.75 °C | binding activity with NSP12 in vitro (NSP12): did not exhibit binding activity
